{"source": "patent US6428654B1", "about": "“Fungicidal method” (Hercules Incorporated, priority 2000, dated 2002)", "test_system": "Aspergillus niger (ATCC 6275)", "assay": "Microtiter XTT growth inhibition assay", "assay_type": "cell-based", "details": "37° C. 24 hours, XTT read at 465 nm, duplicate plates (Plate 1, Plate 2)", "procedure": "Preparation of the Spore Inoculum—Two sterile petri dishes containing potato dextrose agar are inoculated with Aspergillus niger (ATCC 6275). The plates are incubated for at least 48 hours at 35+1 ° C. At the end of the incubation period, the plates are checked for mycelia and fruiting bodies of the fungus. To prepare the spore-mycelial suspension, the agar surface is scraped with a sterile cotton tip swab. The spores are suspended from the cotton swab in a sterile test tube containing a solution of 0.85% saline and 0.01% Tween 80 (v/v). The spore-mycelial suspension is shaken or vortexed to break up spore and mycelial clumps. Prior to the addition of the spore-mycelial suspension to the test tube containing saline and Tween, a spectrophotometer is set to 650 nm and the absorbance reading is balanced to zero. The optical density (absorbance) of the spore-mycelial suspension is measured in the spectrophotometer. If necessary, the optical density is adjusted to 0.29 absorbance units by addition of diluent or spores. At an optical density of 0.29 absorbance units (at 650 nm), the concentration of spores is 1×10^9 spores/ml. The spore-mycelial suspension is diluted 1/1000 to yield inoculum used for the microtiter assay, having a concentration of 1×10^6 spores/ml.\nMicrotiter Assay—Six MULTISCREEN filtration plates (96-well MULTISCREEN-GV, clear plates with 0.22 μm membrane; Millipore Corp., Molsheim, France) are used for a three dose response protocol. This protocol and the six MULTISCREEN plates allows for duplication of the experimental results. The three actives employed are BAS49002F (kresoxim methyl at 50 wt %; BASF Corporation, Ludwigshafen, Germany), AF1912 (diiodomethyl-paratolylsulfone; Angus Chemical Company, Buffalo Grove, Ill.), and MBTC (methylenebisthiocyanate; Aldrich Chemical Company, Milwaukee, Wis.). These actives are individually diluted with water to a concentration of 40 ppm actives. Using separate dilution blocks for each active, the actives are serially diluted to reach experimental dose ranges from 10 to 0.156 ppm. Along with the treatments (actives), Sabouraud Dextrose broth (DIFCO Laboratories, Detroit Mich.) and inoculum are added to each well. The microtiter plates are incubated at 37° C. for 24 hours, and after this period a 0.1% solution of XTT (2,3-bis[2-methoxy-4-nitro-5-sulfophenyl]-2H-tetrazolium-5-carboxanilide; Sigma Chemical, Saint Louis, Mo.) and 0.01% of PMS (phenazine methosulfate; Sigma Chemical, Saint Louis, Mo.) are added to each well. The plates are incubated for approximately 3 more hours. Filtration via the MULTISCREEN plates removes the mycelial growth and nonvegetated spores of Aspergillus niger. Each microtiter well is read at 465 nm for the reduction of XTT by metabolically active cells (i.e., a color change from the untreated controls would indicate respiring fungal cells). Growth inhibition results are presented in Table 2, which represents the processed absorbance data that has been converted as a percent inhibition of fungal growth by the three actives tested (BAS49002F, AF1912, and MBTC). The dashed lines in Table 2 indicate negative inhibition values, which indicate that cells were viable, but in futile cell cycles.", "note": "Values joined by “and” are separate entries in the source; they are usually repeats but may differ in a detail not shown here. Equal entries are not always repeated.", "data": [{"smiles": "N#CSCSC#N", "note": "[MBTC, methylenebisthiocyanate]", "values": [{"measurement": "percent inhibition of fungal growth", "setting": "0.156 ppm actives", "value": "— (The dashed lines in Table 2 indicate negative inhibition values, which indicate that cells were viable, but in futile cell cycles)"}, {"measurement": "percent inhibition of fungal growth", "setting": "0.31 ppm actives", "value": "— (The dashed lines in Table 2 indicate negative inhibition values, which indicate that cells were viable, but in futile cell cycles)"}, {"measurement": "percent inhibition of fungal growth", "setting": "0.625 ppm actives", "value": "— (The dashed lines in Table 2 indicate negative inhibition values, which indicate that cells were viable, but in futile cell cycles)"}, {"measurement": "percent inhibition of fungal growth", "setting": "1.25 ppm actives", "value": "— (The dashed lines in Table 2 indicate negative inhibition values, which indicate that cells were viable, but in futile cell cycles)"}, {"measurement": "percent inhibition of fungal growth", "setting": "2.5 ppm actives", "value": "86% and 84%"}, {"measurement": "percent inhibition of fungal growth", "setting": "5.0 ppm actives", "value": "88% and 89%"}, {"measurement": "percent inhibition of fungal growth", "setting": "10.0 ppm actives", "value": "88% and 89%"}]}]}
